Results published in ChEMBL document CHEMBL5465560, “Selectivity Literature for EUbOPEN Chemogenomic Library” (2024).
Blank lines part the entries; values can stand above or below the molecule they belong to.

Key:
[1] = target: Tyrosine-protein kinase Fgr (Homo sapiens) (UniProt P09769); assay: Selectivity interaction (Millipore kinase profiler) EUB0000124b FGR; details: at 10 µM
[2] = target: Protein-tyrosine kinase 2-beta (Homo sapiens) (UniProt Q14289); assay: Selectivity interaction (ActivX KiNativ screen (kinase selectivity in THP-1 cell lysates)) EUB0000639a PTK2B; assay type: subcellular; details: lysate
[3] = target: T1, Serine/threonine-protein kinase 36 (Homo sapiens) (UniProt Q9NRP7); assay: Selectivity interaction (KinomeScan (DiscoverX)) EUB0000595a STK36; details: at 10 µM
T1 sequence (whole entry): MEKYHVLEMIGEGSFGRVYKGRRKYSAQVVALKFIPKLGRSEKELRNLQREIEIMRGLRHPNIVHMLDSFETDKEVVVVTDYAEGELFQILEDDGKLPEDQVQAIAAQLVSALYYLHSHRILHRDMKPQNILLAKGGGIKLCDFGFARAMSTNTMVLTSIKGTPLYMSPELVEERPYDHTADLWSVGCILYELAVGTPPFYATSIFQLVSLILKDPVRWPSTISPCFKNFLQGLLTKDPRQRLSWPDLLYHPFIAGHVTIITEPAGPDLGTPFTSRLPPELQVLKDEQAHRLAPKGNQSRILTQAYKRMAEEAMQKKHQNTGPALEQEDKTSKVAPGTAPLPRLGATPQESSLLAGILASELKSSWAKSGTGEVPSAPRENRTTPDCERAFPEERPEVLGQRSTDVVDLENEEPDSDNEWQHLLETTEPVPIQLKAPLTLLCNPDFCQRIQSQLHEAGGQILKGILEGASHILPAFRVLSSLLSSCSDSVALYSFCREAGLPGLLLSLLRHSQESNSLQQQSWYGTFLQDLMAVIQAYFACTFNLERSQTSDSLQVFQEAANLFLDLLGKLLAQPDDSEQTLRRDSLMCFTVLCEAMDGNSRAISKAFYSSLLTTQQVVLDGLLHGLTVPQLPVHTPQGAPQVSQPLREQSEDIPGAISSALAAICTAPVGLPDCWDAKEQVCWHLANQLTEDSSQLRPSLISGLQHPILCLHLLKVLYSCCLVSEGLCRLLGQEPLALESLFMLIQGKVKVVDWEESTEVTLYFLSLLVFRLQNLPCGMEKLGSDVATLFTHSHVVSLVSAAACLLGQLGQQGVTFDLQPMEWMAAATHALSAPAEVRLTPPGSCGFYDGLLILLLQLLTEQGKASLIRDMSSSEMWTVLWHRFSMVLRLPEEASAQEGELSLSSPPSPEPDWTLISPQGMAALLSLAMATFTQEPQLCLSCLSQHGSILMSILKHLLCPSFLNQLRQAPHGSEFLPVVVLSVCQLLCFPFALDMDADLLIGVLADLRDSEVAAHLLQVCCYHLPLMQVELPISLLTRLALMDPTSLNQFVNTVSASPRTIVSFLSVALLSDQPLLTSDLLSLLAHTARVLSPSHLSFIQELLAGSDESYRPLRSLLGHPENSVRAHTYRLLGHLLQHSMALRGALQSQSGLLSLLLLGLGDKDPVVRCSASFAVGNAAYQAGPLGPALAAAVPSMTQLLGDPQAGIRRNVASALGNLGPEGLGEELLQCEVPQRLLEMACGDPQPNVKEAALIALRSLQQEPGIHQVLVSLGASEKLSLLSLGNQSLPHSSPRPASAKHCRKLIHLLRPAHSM

[4] = target: Serine/threonine-protein kinase Nek6 (Homo sapiens) (UniProt Q9HC98); assay: Selectivity interaction (ProQinase) EUB0000171b NEK6
[5] = target: T2, Mitogen-activated protein kinase 15 (Homo sapiens) (UniProt Q8TD08); assay: Selectivity interaction (KinomeScan (DiscoverX)) EUB0000092b MAPK15; details: at 10 µM
T2 sequence (whole entry): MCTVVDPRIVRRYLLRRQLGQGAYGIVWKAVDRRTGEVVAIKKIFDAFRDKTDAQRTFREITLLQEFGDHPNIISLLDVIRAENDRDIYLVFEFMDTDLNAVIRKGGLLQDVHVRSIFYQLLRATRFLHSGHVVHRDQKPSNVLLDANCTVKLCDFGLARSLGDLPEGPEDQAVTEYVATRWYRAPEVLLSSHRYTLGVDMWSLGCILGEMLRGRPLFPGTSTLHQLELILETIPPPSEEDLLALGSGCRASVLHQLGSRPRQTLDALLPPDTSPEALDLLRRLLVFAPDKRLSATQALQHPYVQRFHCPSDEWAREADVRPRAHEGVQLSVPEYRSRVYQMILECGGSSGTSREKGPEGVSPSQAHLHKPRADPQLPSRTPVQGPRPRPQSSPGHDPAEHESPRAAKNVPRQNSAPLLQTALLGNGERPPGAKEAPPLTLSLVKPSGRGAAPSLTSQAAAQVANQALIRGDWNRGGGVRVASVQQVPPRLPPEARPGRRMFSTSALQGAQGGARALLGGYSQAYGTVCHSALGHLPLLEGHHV

[6] = target: T3, Dual specificity protein kinase TTK (Homo sapiens) (UniProt P33981); assay: Selectivity interaction (KinomeScan (DiscoverX)) EUB0000655a TTK; details: at 10 µM
T3 sequence (whole entry): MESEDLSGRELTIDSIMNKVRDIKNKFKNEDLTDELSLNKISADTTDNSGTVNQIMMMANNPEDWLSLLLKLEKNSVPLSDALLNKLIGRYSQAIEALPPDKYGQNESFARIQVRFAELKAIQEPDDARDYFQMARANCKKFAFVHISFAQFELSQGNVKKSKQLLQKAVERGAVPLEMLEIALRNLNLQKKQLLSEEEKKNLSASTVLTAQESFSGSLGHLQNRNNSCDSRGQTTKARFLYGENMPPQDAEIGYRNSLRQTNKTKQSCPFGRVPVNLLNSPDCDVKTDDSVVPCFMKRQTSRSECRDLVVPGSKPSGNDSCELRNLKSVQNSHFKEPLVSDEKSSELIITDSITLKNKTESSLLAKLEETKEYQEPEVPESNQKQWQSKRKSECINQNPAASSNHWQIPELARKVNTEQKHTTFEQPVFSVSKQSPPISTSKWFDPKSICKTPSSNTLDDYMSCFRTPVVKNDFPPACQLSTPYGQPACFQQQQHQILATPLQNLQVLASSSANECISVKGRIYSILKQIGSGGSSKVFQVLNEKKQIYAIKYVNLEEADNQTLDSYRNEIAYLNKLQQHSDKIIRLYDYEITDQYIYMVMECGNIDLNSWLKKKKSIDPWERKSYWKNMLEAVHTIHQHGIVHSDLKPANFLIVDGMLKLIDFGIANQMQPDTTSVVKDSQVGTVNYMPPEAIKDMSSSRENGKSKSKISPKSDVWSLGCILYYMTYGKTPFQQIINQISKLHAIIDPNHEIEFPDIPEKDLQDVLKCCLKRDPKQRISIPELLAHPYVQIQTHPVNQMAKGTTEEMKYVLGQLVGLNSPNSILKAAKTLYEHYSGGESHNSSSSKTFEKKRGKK

Protein-tyrosine kinase 2-beta (Homo sapiens), sequence (Q14289 whole entry, looked up): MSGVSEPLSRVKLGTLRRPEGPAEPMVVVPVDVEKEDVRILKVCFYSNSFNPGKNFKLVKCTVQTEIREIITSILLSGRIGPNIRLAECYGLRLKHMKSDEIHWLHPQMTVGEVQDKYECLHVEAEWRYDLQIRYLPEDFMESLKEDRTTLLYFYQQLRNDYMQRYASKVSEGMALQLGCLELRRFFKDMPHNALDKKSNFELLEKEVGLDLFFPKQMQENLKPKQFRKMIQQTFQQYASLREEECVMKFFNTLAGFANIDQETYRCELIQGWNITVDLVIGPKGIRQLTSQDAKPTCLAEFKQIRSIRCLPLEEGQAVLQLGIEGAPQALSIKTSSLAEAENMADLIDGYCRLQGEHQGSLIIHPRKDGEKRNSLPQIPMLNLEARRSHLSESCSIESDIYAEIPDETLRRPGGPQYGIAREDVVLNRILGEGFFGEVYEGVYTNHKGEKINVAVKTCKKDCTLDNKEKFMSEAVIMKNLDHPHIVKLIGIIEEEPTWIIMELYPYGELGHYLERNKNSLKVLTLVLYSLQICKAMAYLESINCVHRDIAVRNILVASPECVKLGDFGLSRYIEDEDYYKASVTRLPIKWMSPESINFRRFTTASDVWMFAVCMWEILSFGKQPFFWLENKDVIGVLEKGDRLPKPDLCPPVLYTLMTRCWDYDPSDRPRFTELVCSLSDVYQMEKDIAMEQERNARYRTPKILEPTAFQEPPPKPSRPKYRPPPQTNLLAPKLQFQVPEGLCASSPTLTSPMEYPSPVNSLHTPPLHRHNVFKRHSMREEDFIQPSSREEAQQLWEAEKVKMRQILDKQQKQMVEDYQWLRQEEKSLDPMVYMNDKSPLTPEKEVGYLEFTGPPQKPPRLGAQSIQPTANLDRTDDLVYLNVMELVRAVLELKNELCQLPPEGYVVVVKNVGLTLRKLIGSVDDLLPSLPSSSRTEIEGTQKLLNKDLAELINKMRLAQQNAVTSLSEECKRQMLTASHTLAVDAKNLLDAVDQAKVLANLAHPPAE
Serine/threonine-protein kinase Nek6 (Homo sapiens), sequence (Q9HC98 whole entry): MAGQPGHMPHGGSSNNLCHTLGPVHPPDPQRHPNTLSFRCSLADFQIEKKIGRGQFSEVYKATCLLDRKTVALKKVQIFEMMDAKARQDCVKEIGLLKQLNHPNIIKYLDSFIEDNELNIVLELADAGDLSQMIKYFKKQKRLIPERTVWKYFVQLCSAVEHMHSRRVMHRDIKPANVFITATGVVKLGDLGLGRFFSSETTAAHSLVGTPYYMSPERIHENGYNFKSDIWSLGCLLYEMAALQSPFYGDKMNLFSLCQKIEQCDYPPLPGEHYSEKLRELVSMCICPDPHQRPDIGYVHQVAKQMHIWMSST
Tyrosine-protein kinase Fgr (Homo sapiens), sequence (P09769 2-529 limits assumed): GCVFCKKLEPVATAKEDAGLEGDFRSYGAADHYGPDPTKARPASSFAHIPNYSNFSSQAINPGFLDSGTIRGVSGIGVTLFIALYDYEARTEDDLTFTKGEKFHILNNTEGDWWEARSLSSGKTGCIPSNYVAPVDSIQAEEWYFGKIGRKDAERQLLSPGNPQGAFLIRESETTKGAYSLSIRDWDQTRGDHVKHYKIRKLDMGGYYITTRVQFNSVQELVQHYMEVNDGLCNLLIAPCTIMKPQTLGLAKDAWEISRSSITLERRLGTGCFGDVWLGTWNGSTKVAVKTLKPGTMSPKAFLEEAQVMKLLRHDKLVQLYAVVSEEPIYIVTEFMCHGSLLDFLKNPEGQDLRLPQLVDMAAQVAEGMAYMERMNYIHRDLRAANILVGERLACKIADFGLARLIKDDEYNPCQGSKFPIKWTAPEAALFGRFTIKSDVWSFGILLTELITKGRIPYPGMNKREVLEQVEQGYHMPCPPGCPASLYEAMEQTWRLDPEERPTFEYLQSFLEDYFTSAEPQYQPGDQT

% of control [1]: 86%
SMILES: CC(=O)Nc1cccc(-n2c(=O)n(C3CC3)c(=O)c3c(Nc4ccc(I)cc4F)n(C)c(=O)c(C)c32)c1

% of inhibition ([2]; at 0.01 µM): -13.4%
% of inhibition ([2]; at 0.04 µM): 9.7%
% of inhibition ([2]; at 0.2 µM): -2.6%
% of inhibition ([2]; at 1 µM): -0.1%
% of inhibition ([2]; at 5 µM): -10.1%
SMILES: CC[C@@H]1[C@H](F)C(=O)N[C@@H]1COc1nccc2cc(C(N)=O)c(OC)cc12 [ZIMLOVISERTIB]

SMILES: COCC(=O)NC/C=C/c1ccc2ncnc(Nc3ccc(Oc4ccc(C)nc4)c(C)c3)c2c1 [CP-724714]
% of control [3]: 100%

% of control ([4]; at 1 µM): 91%
% of control ([4]; at 5 µM): 92%
SMILES: C=CC(=O)Nc1cccc(C(=O)Nc2ccc(Nc3cc(-c4[nH]c(SC)nc4C)ccn3)cc2)c1

SMILES: CCC(=O)N1CCN(c2ccc(-n3c(=O)ccc4cnc5ccc(-c6cnc7ccccc7c6)cc5c43)cc2C(F)(F)F)CC1
% of control [5]: 79%

SMILES: CN(C)CCOc1ccc(-c2nc(-c3ccncc3)c(-c3ccc4c(c3)CC/C4=N\O)[nH]2)cc1
% of control [6]: 94%
